In patent US12679878B2, “CRF2 receptor agonists and their use in therapy” (SANOFI, priority 2020, dated 2026):
Starred links: 1 amine or outer side, 2 acyl side, 3 side chain; linkers in the order of their positions; H or OH if unused. Non-standard residues stand in square brackets, D forms with d. Residues, ends and D or L forms follow the SMILES beside them. Groups on a side chain read outwards from the residue. *: point of attachment. C18 diacid = O=C(O)CCCCCCCCCCCCCCCCC(=O)*; γGlu = O=C(O)[C@H](CCC(=O)[*:2])N[*:1]; Palmitoyl = CCCCCCCCCCCCCCCC(=O)*; AEEA = NCCOCCOCC(=O)O; Aib = CC(C)(N)C(=O)O

Tests used:
CRF1R receptor = target: T1, CRF1R receptor (Homo sapiens, UniProt P34998); assay: cAMP activity at anti-target CRF1R, CHO-K1 cell line clone 2 (Example 19.10); assay type: cell-based; details: CRF1R CHO-K1 clone 2; for Emax: 100% = Sauvagine at 100 nM; for EC50: 0% HSA, read-out: EC50 [nM] 0% HSA
T1 construct: host or cells: CHO-K1 clone 2
T1 sequence (P34998 24-415): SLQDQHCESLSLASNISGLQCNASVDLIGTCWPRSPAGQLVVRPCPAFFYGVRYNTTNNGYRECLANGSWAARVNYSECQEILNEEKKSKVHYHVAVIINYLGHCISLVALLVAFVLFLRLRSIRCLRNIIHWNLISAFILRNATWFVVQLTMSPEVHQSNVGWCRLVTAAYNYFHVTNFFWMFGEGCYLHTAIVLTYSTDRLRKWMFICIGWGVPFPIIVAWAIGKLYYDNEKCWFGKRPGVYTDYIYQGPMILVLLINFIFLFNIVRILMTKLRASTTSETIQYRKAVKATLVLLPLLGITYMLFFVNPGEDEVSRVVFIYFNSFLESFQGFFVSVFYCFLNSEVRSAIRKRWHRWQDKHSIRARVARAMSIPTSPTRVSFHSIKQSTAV
Experimental: The CRF1R-overexpression CHO-K1 cell line clone 2 was purchased from PerkinElmer.
Cells were grown in a 10 cm dish at 37° C./5% CO2 in medium (F12 (Hams)/10% FBS/400 μg/ml G418) to near confluence. At that stage, cells were harvested, resuspended to 10 million/mL in culture medium without G418 and with 10% DMSO. 1 mL vial aliquots were slowly frozen to -80° C. in isopropanol and then transferred in liquid nitrogen for storage. These vials were used to run the experiment following the procedure reported 10 in the previous paragraph, except for the compound used in the control well to define the 100% activation (Sauvagine at 100 nM)

human CRF2α receptor = target: T2, human CRF2α receptor (Homo sapiens, UniProt Q13324); assay: cAMP agonism at human CRF2 α receptor in TeloHEAC cells (Example 7); assay type: cell-based; details: cAMP HTRF, TeloHEAC cells stably expressing human CRF2 α, 0% HSA; read-out: EC50 [nM], 0% HSA
T2 construct: expressed in transfected cells; host or cells: TeloHEAC
T2 sequence (Q13324 1-411): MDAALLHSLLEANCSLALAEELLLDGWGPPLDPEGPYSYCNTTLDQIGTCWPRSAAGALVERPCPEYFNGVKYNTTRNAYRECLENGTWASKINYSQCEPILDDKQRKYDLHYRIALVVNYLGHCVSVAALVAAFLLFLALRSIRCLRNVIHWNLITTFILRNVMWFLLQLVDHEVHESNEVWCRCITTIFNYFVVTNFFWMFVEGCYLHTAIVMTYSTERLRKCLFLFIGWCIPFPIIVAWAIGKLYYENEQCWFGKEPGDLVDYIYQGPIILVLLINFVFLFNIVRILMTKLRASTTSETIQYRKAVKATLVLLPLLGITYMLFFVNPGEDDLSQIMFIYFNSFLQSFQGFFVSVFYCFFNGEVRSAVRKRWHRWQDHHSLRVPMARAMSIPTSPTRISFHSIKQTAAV
In short: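 Thawed frozen stably transfected cells in HBSS/20 mM HEPES (0% or 0.1% HSA) plus 2 mM IBMX were exposed to compound at 2000 cells/well for 30 min at room temperature. Intracellular cAMP was read by HTRF (665/620 nm ratio) after 1 h lysis; EC50 was derived with 1000 nM urocortin 2 set as 100%.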

SMILES	Emax (CRF1R receptor)	EC50 (CRF1R receptor)	EC50 (human CRF2α receptor)
CC[C@H](C)[C@H](N)C(=O)N[C@H](C(=O)N[C@@H](CC(C)C)C(=O)N[C@@H](CO)C(=O)N[C@@H](CC(C)C)C(=O)N[C@@H](CC(=O)O)C(=O)N[C@H](C(=O)N1CCC[C@H]1C(=O)N[C@H](C(=O)NCC(=O)N[C@@H](CC(C)C)C(=O)N[C@@H](CCCCNC(=O)COCCOCCNC(=O)COCCOCCNC(=O)CC[C@H](NC(=O)CCCCCCCCCCCCCCCCC(=O)O)C(=O)O)C(=O)N[C@@H](CCC(N)=O)C(=O)N[C@@H](CCCCN)C(=O)N[C@@H](CC(C)C)C(=O)N[C@@H](CC(C)C)C(=O)N[C@@H](CCCCN)C(=O)N[C@@H](CCC(N)=O)C(=O)N[C@@H](CCC(N)=O)C(=O)N[C@@H](CCCNC(=N)N)C(=O)N[C@@H](CCC(N)=O)C(=O)N[C@@H](CCCNC(=N)N)C(=O)N[C@@H](CCCCN)C(=O)N[C@@H](CCC(=O)O)C(=O)N[C@@H](CCCNC(=N)N)C(=O)N[C@@H](CCC(N)=O)C(=O)N[C@@H](CCC(N)=O)C(=O)N[C@@H](C)C(=O)N[C@@H](CCC(=O)O)C(=O)N[C@@H](CCCCN)C(=O)N[C@@H](CC(N)=O)C(=O)N[C@@H](C)C(=O)N[C@@H](CCCNC(=N)N)C(=O)N[C@H](C(=O)N[C@@H](CC(C)C)C(=O)N[C@@H](C)C(=O)N[C@@H](CCCNC(=N)N)C(=O)N[C@H](C(N)=O)C(C)C)[C@@H](C)CC)[C@@H](C)CC)C(C)C)C(C)C [compound 16] (H-IVLSLDVPIGLK([AEEA-AEEA-γGlu-C18 diacid])QKLLKQQRQRKERQQAEKNARILARV-NH2)	0.4%	–	–
CC[C@H](C)[C@H](N)C(=O)N[C@H](C(=O)N[C@@H](CC(C)C)C(=O)N[C@@H](CO)C(=O)N[C@@H](CC(C)C)C(=O)N[C@@H](CC(=O)O)C(=O)N[C@H](C(=O)N1CCC[C@H]1C(=O)N[C@H](C(=O)N[C@@H](CCCCN)C(=O)N[C@@H](CC(C)C)C(=O)N[C@@H](CCCCNC(=O)COCCOCCNC(=O)COCCOCCNC(=O)CC[C@H](NC(=O)CCCCCCCCCCCCCCCCC(=O)O)C(=O)O)C(=O)N[C@@H](CCC(N)=O)C(=O)N[C@H](C(=O)N[C@@H](CC(C)C)C(=O)N[C@@H](CC(C)C)C(=O)N[C@@H](CCCCN)C(=O)N[C@@H](CCC(N)=O)C(=O)N[C@@H](CCC(=O)O)C(=O)N[C@@H](CCCNC(=N)N)C(=O)N[C@@H](CCC(N)=O)C(=O)N[C@@H](CCCCN)C(=O)NC(C)(C)C(=O)N[C@@H](CCC(N)=O)C(=O)N[C@@H](CCCNC(=N)N)C(=O)N[C@@H](CCC(N)=O)C(=O)N[C@@H](CCCCN)C(=O)N[C@@H](C)C(=O)N[C@@H](CCC(=O)O)C(=O)N[C@@H](CCCCN)C(=O)N[C@@H](CC(N)=O)C(=O)N[C@@H](CCCCN)C(=O)N[C@@H](CCC(N)=O)C(=O)N[C@H](C(=O)N[C@@H](CC(C)C)C(=O)N[C@@H](C)C(=O)N[C@@H](CCC(N)=O)C(=O)N[C@H](C(N)=O)C(C)C)[C@@H](C)CC)[C@@H](C)CC)[C@@H](C)CC)C(C)C)C(C)C [compound 22] (H-IVLSLDVPIKLK([AEEA-AEEA-γGlu-C18 diacid])QILLKQERQK[Aib]QRQKAEKNKQILAQV-NH2)	1.2%	> 100 nM	0.12 nM
CCCCCCCCCCCCCCCC(=O)N[C@@H](CCC(=O)NCCCC[C@H](NC(=O)[C@H](CC(C)C)NC(=O)[C@H](CCCCN)NC(=O)[C@@H](NC(=O)[C@@H]1CCCN1C(=O)[C@H](NC(=O)[C@H](CC(=O)O)NC(=O)[C@H](CC(C)C)NC(=O)[C@H](CO)NC(=O)[C@H](CC(C)C)NC(=O)[C@@H](NC(=O)[C@@H](N)[C@@H](C)CC)C(C)C)C(C)C)[C@@H](C)O)C(=O)N[C@@H](CCCCN)C(=O)N[C@@H](CCCCN)C(=O)N[C@@H](CC(C)C)C(=O)N[C@@H](CC(C)C)C(=O)N[C@@H](CCCCN)C(=O)N[C@@H](CCC(N)=O)C(=O)N[C@@H](CCC(=O)O)C(=O)N[C@@H](CCCNC(=N)N)C(=O)N[C@@H](CCCCN)C(=O)N[C@@H](CCCNC(=N)N)C(=O)N[C@@H](CCCCN)C(=O)N[C@@H](CCC(=O)O)C(=O)N[C@@H](CCCNC(=N)N)C(=O)N[C@@H](CCC(=O)O)C(=O)N[C@@H](CCCCN)C(=O)N[C@@H](C)C(=O)N[C@@H](CCC(=O)O)C(=O)N[C@@H](CCCCN)C(=O)N[C@@H](CC(N)=O)C(=O)N[C@@H](C)C(=O)N[C@@H](CCCNC(=N)N)C(=O)N[C@H](C(=O)N[C@@H](CC(C)C)C(=O)N[C@@H](CCC(=O)O)C(=O)N[C@@H](CCCNC(=N)N)C(=O)N[C@H](C(N)=O)C(C)C)[C@@H](C)CC)C(=O)O [compound 25] (H-IVLSLD[dV]PTKLK([γGlu-Palmitoyl])KKLLKQERKRKEREKAEKNARILERV-NH2)	0.1%	> 100 nM	0.09 nM
CCCCCCCCCCCCCCCC(=O)N[C@@H](CCC(=O)NCCCC[C@H](NC(=O)[C@H](CC(C)C)NC(=O)[C@H](CCCCN)NC(=O)[C@@H](NC(=O)[C@@H]1CCCN1C(=O)[C@H](NC(=O)[C@H](CC(=O)O)NC(=O)[C@H](CC(C)C)NC(=O)[C@H](CO)NC(=O)[C@H](CC(C)C)NC(=O)[C@@H](NC(=O)[C@@H](N)[C@@H](C)CC)C(C)C)C(C)C)[C@@H](C)O)C(=O)N[C@@H](CCCCN)C(=O)N[C@@H](CCCCN)C(=O)N[C@@H](CC(C)C)C(=O)N[C@@H](CC(C)C)C(=O)N[C@@H](CCCCN)C(=O)N[C@@H](CCC(N)=O)C(=O)N[C@@H](CCC(=O)O)C(=O)N[C@@H](CCCNC(=N)N)C(=O)N[C@@H](CCCCN)C(=O)N[C@@H](CCCNC(=N)N)C(=O)N[C@@H](CCCCN)C(=O)N[C@@H](CCC(=O)O)C(=O)N[C@@H](CCCNC(=N)N)C(=O)N[C@@H](CCC(=O)O)C(=O)NC(C)(C)C(=O)N[C@@H](C)C(=O)N[C@@H](CCC(=O)O)C(=O)N[C@@H](CCCCN)C(=O)N[C@@H](CC(N)=O)C(=O)N[C@@H](C)C(=O)N[C@@H](CCCNC(=N)N)C(=O)N[C@H](C(=O)N[C@@H](CC(C)C)C(=O)N[C@@H](CCC(=O)O)C(=O)N[C@@H](CCCNC(=N)N)C(=O)N[C@H](C(N)=O)C(C)C)[C@@H](C)CC)C(=O)O [compound 26] (H-IVLSLD[dV]PTKLK([γGlu-Palmitoyl])KKLLKQERKRKERE[Aib]AEKNARILERV-NH2; N-terminus assumed)	0.6%	> 100 nM	0.01 nM
CCCCCCCCCCCCCCCC(=O)N[C@@H](CCC(=O)NCCCC[C@H](NC(=O)[C@H](CC(C)C)NC(=O)[C@H](CCCCN)NC(=O)[C@@H](NC(=O)[C@@H]1CCCN1C(=O)[C@H](NC(=O)[C@H](CC(=O)O)NC(=O)[C@H](CC(C)C)NC(=O)[C@H](CO)NC(=O)[C@H](CC(C)C)NC(=O)[C@@H](NC(=O)[C@@H](N)[C@@H](C)CC)C(C)C)C(C)C)[C@@H](C)O)C(=O)N[C@@H](CCCCN)C(=O)N[C@@H](CCCCN)C(=O)N[C@@H](CC(C)C)C(=O)N[C@@H](CC(C)C)C(=O)N[C@@H](CCCCN)C(=O)N[C@@H](CCC(N)=O)C(=O)N[C@@H](CCC(=O)O)C(=O)N[C@@H](CCCNC(=N)N)C(=O)N[C@@H](CCCCN)C(=O)N[C@@H](CCCNC(=N)N)C(=O)N[C@@H](CCCCN)C(=O)N[C@@H](CCC(=O)O)C(=O)N[C@@H](CCCNC(=N)N)C(=O)N[C@@H](CCC(=O)O)C(=O)N[C@@H](CCC(N)=O)C(=O)N[C@@H](C)C(=O)N[C@@H](CCC(=O)O)C(=O)N[C@@H](CCCCN)C(=O)N[C@@H](CC(N)=O)C(=O)N[C@@H](C)C(=O)N[C@@H](CCCNC(=N)N)C(=O)N[C@H](C(=O)N[C@@H](CC(C)C)C(=O)N[C@@H](CCC(=O)O)C(=O)N[C@@H](CCCNC(=N)N)C(=O)N[C@H](C(N)=O)C(C)C)[C@@H](C)CC)C(=O)O [compound 27] (H-IVLSLD[dV]PTKLK([γGlu-Palmitoyl])KKLLKQERKRKEREQAEKNARILERV-NH2; N-terminus assumed)	34.2%	> 100 nM	0.01 nM
